{"source": "the supplement of paper PMC10307832", "test_in_all_cases": "relative viability (nuclei count vs DMSO), 5 days (fraction); higher = more cells survive", "key": {"[1]": {"tested_on": "CAL-12T", "summary_of_the_method": "(§1)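 Nuclei were stained with Hoechst during a one-step fixation (final 0.05% Triton X-100, 1% formaldehyde, 1 ug/ml Hoechst) carried out 5 days after dosing, then counted on 4× images. The cells, lung cancer lines in 1536-well plates, had been dosed by pin tool the day after seeding with one drug alone or a fixed anchor-drug dose plus five library-drug doses (not always all listed) in √10 steps. Relative viability is the nuclei count in treated wells divided by that in vehicle wells, and each value is the median of duplicate plates.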"}, "[2]": {"tested_on": "COR-L23", "summary_of_the_method": "as §1"}, "[3]": {"tested_on": "EKVX", "summary_of_the_method": "as §1"}, "[4]": {"tested_on": "H3255", "summary_of_the_method": "as §1"}, "[5]": {"tested_on": "HCC-15", "summary_of_the_method": "as §1"}, "[6]": {"tested_on": "HCC-827", "summary_of_the_method": "as §1"}, "[7]": {"tested_on": "LK-2", "summary_of_the_method": "as §1"}, "[8]": {"tested_on": "NCI-H1355", "summary_of_the_method": "as §1"}, "[9]": {"tested_on": "NCI-H1437", "summary_of_the_method": "as §1"}, "[10]": {"tested_on": "NCI-H1650", "summary_of_the_method": "as §1"}, "[11]": {"tested_on": "NCI-H1651", "summary_of_the_method": "as §1"}, "[12]": {"tested_on": "NCI-H1734", "summary_of_the_method": "as §1"}, "[13]": {"tested_on": "NCI-H2228", "summary_of_the_method": "as §1"}, "[14]": {"tested_on": "NCI-H2405", "summary_of_the_method": "as §1"}, "[15]": {"tested_on": "NCI-H322M", "summary_of_the_method": "as §1"}, "[16]": {"tested_on": "NCI-H520", "summary_of_the_method": "as §1"}, "[17]": {"tested_on": "PC-14", "summary_of_the_method": "as §1"}, "[18]": {"tested_on": "PC-3 [JPC-3]", "summary_of_the_method": "as §1"}, "[19]": {"tested_on": "RERF-LC-KJ", "summary_of_the_method": "as §1"}, "[20]": {"tested_on": "SK-MES-1", "summary_of_the_method": "as §1"}, "[21]": {"tested_on": "SW 1573", "summary_of_the_method": "as §1"}}}
{"smiles": "Clc1ccc(Nc2nnc(Cc3ccncc3)c3ccccc23)cc1", "note": "[Vatalanib] + CC1(C)CCC(c2ccc(Cl)cc2)=C(CN2CCN(c3ccc(C(=O)NS(=O)(=O)c4ccc(N[C@H](CCN5CCOCC5)CSc5ccccc5)c(S(=O)(=O)C(F)(F)F)c4)cc3)CC2)C1 [Navitoclax] (partner 0.5 µM)", "values": [{"measurement": "relative viability", "setting": "[1]; first compound 0.04 µM", "value": 1.17}, {"measurement": "relative viability", "setting": "[1]; first compound 0.1265 µM", "value": 1.2}, {"measurement": "relative viability", "setting": "[1]; first compound 0.4 µM", "value": 1.28}, {"measurement": "relative viability", "setting": "[1]; first compound 1.265 µM", "value": 1.15}, {"measurement": "relative viability", "setting": "[1]; first compound 4 µM", "value": 1.31}, {"measurement": "relative viability", "setting": "[2]; first compound 0.04 µM", "value": 1.1}, {"measurement": "relative viability", "setting": "[2]; first compound 0.1265 µM", "value": 0.972}, {"measurement": "relative viability", "setting": "[2]; first compound 0.4 µM", "value": 1.24}, {"measurement": "relative viability", "setting": "[2]; first compound 1.265 µM", "value": 0.778}, {"measurement": "relative viability", "setting": "[2]; first compound 4 µM", "value": 1.01}, {"measurement": "relative viability", "setting": "[3]; first compound 0.04 µM", "value": 0.924}, {"measurement": "relative viability", "setting": "[3]; first compound 0.1265 µM", "value": 0.928}, {"measurement": "relative viability", "setting": "[3]; first compound 0.4 µM", "value": 1}, {"measurement": "relative viability", "setting": "[3]; first compound 1.265 µM", "value": 0.839}, {"measurement": "relative viability", "setting": "[3]; first compound 4 µM", "value": 0.891}, {"measurement": "relative viability", "setting": "[4]; first compound 0.04 µM", "value": 0.608}, {"measurement": "relative viability", "setting": "[4]; first compound 0.1265 µM", "value": 0.469}, {"measurement": "relative viability", "setting": "[4]; first compound 0.4 µM", "value": 0.458}, {"measurement": "relative viability", "setting": "[4]; first compound 1.265 µM", "value": 0.444}, {"measurement": "relative viability", "setting": "[4]; first compound 4 µM", "value": 0.521}, {"measurement": "relative viability", "setting": "[5]; first compound 0.04 µM", "value": 0.719}, {"measurement": "relative viability", "setting": "[5]; first compound 0.1265 µM", "value": 0.713}, {"measurement": "relative viability", "setting": "[5]; first compound 0.4 µM", "value": 0.767}, {"measurement": "relative viability", "setting": "[5]; first compound 1.265 µM", "value": 0.737}, {"measurement": "relative viability", "setting": "[5]; first compound 4 µM", "value": 0.654}, {"measurement": "relative viability", "setting": "[6]; first compound 0.04 µM", "value": 1.01}, {"measurement": "relative viability", "setting": "[6]; first compound 0.1265 µM", "value": 0.982}, {"measurement": "relative viability", "setting": "[6]; first compound 0.4 µM", "value": 1.06}, {"measurement": "relative viability", "setting": "[6]; first compound 1.265 µM", "value": 0.994}, {"measurement": "relative viability", "setting": "[6]; first compound 4 µM", "value": 0.97}, {"measurement": "relative viability", "setting": "[7]; first compound 0.04 µM", "value": 0.883}, {"measurement": "relative viability", "setting": "[7]; first compound 0.1265 µM", "value": 0.824}, {"measurement": "relative viability", "setting": "[7]; first compound 1.265 µM", "value": 0.955}, {"measurement": "relative viability", "setting": "[7]; first compound 4 µM", "value": 0.807}, {"measurement": "relative viability", "setting": "[8]; first compound 0.04 µM", "value": 0.962}, {"measurement": "relative viability", "setting": "[8]; first compound 0.1265 µM", "value": 0.927}, {"measurement": "relative viability", "setting": "[8]; first compound 0.4 µM", "value": 1.01}, {"measurement": "relative viability", "setting": "[8]; first compound 1.265 µM", "value": 0.875}, {"measurement": "relative viability", "setting": "[8]; first compound 4 µM", "value": 0.917}, {"measurement": "relative viability", "setting": "[9]; first compound 0.04 µM", "value": 1.09}, {"measurement": "relative viability", "setting": "[9]; first compound 0.1265 µM", "value": 1.09}, {"measurement": "relative viability", "setting": "[9]; first compound 0.4 µM", "value": 1.12}, {"measurement": "relative viability", "setting": "[9]; first compound 1.265 µM", "value": 1.13}, {"measurement": "relative viability", "setting": "[9]; first compound 4 µM", "value": 1.15}, {"measurement": "relative viability", "setting": "[10]; first compound 0.04 µM", "value": 1.32}, {"measurement": "relative viability", "setting": "[10]; first compound 0.1265 µM", "value": 1.2}, {"measurement": "relative viability", "setting": "[10]; first compound 0.4 µM", "value": 1.41}, {"measurement": "relative viability", "setting": "[10]; first compound 1.265 µM", "value": 0.951}, {"measurement": "relative viability", "setting": "[10]; first compound 4 µM", "value": 1.17}, {"measurement": "relative viability", "setting": "[11]; first compound 0.04 µM", "value": 0.928}, {"measurement": "relative viability", "setting": "[11]; first compound 0.1265 µM", "value": 1.09}, {"measurement": "relative viability", "setting": "[11]; first compound 0.4 µM", "value": 1.11}, {"measurement": "relative viability", "setting": "[11]; first compound 1.265 µM", "value": 1.02}, {"measurement": "relative viability", "setting": "[11]; first compound 4 µM", "value": 1.08}, {"measurement": "relative viability", "setting": "[12]; first compound 0.04 µM", "value": 0.921}, {"measurement": "relative viability", "setting": "[12]; first compound 0.1265 µM", "value": 0.719}, {"measurement": "relative viability", "setting": "[12]; first compound 0.4 µM", "value": 0.927}, {"measurement": "relative viability", "setting": "[12]; first compound 1.265 µM", "value": 0.823}, {"measurement": "relative viability", "setting": "[12]; first compound 4 µM", "value": 0.822}, {"measurement": "relative viability", "setting": "[13]; first compound 0.04 µM", "value": 0.845}, {"measurement": "relative viability", "setting": "[13]; first compound 0.1265 µM", "value": 0.92}, {"measurement": "relative viability", "setting": "[13]; first compound 0.4 µM", "value": 1.1}, {"measurement": "relative viability", "setting": "[13]; first compound 1.265 µM", "value": 0.755}, {"measurement": "relative viability", "setting": "[13]; first compound 4 µM", "value": 0.83}, {"measurement": "relative viability", "setting": "[14]; first compound 0.04 µM", "value": 0.856}, {"measurement": "relative viability", "setting": "[14]; first compound 0.1265 µM", "value": 0.726}, {"measurement": "relative viability", "setting": "[14]; first compound 1.265 µM", "value": 0.728}, {"measurement": "relative viability", "setting": "[14]; first compound 4 µM", "value": 0.713}, {"measurement": "relative viability", "setting": "[15]; first compound 0.04 µM", "value": 1.22}, {"measurement": "relative viability", "setting": "[15]; first compound 0.1265 µM", "value": 1.21}, {"measurement": "relative viability", "setting": "[15]; first compound 0.4 µM", "value": 1.27}, {"measurement": "relative viability", "setting": "[15]; first compound 1.265 µM", "value": 1.14}, {"measurement": "relative viability", "setting": "[15]; first compound 4 µM", "value": 1.09}, {"measurement": "relative viability", "setting": "[16]; first compound 0.04 µM", "value": 0.974}, {"measurement": "relative viability", "setting": "[16]; first compound 0.1265 µM", "value": 1.02}, {"measurement": "relative viability", "setting": "[16]; first compound 0.4 µM", "value": 1.1}, {"measurement": "relative viability", "setting": "[16]; first compound 1.265 µM", "value": 0.907}, {"measurement": "relative viability", "setting": "[16]; first compound 4 µM", "value": 1.06}, {"measurement": "relative viability", "setting": "[17]; first compound 0.04 µM", "value": 1.04}, {"measurement": "relative viability", "setting": "[17]; first compound 0.1265 µM", "value": 0.941}, {"measurement": "relative viability", "setting": "[17]; first compound 0.4 µM", "value": 1.07}, {"measurement": "relative viability", "setting": "[17]; first compound 1.265 µM", "value": 1.03}, {"measurement": "relative viability", "setting": "[17]; first compound 4 µM", "value": 0.997}, {"measurement": "relative viability", "setting": "[18]; first compound 0.04 µM", "value": 0.725}, {"measurement": "relative viability", "setting": "[18]; first compound 0.1265 µM", "value": 0.832}, {"measurement": "relative viability", "setting": "[18]; first compound 0.4 µM", "value": 0.848}, {"measurement": "relative viability", "setting": "[18]; first compound 1.265 µM", "value": 0.739}, {"measurement": "relative viability", "setting": "[18]; first compound 4 µM", "value": 0.757}, {"measurement": "relative viability", "setting": "[19]; first compound 0.04 µM", "value": 1.1}, {"measurement": "relative viability", "setting": "[19]; first compound 0.1265 µM", "value": 0.959}, {"measurement": "relative viability", "setting": "[19]; first compound 0.4 µM", "value": 0.951}, {"measurement": "relative viability", "setting": "[19]; first compound 1.265 µM", "value": 0.79}, {"measurement": "relative viability", "setting": "[19]; first compound 4 µM", "value": 0.822}, {"measurement": "relative viability", "setting": "[20]; first compound 0.04 µM", "value": 1.2}, {"measurement": "relative viability", "setting": "[20]; first compound 0.1265 µM", "value": 1.21}, {"measurement": "relative viability", "setting": "[20]; first compound 0.4 µM", "value": 1.28}, {"measurement": "relative viability", "setting": "[20]; first compound 1.265 µM", "value": 1.01}, {"measurement": "relative viability", "setting": "[20]; first compound 4 µM", "value": 1.15}, {"measurement": "relative viability", "setting": "[21]; first compound 0.04 µM", "value": 0.938}, {"measurement": "relative viability", "setting": "[21]; first compound 0.1265 µM", "value": 1.03}, {"measurement": "relative viability", "setting": "[21]; first compound 0.4 µM", "value": 1.02}, {"measurement": "relative viability", "setting": "[21]; first compound 1.265 µM", "value": 0.872}, {"measurement": "relative viability", "setting": "[21]; first compound 4 µM", "value": 0.969}]}
